Test results from patent US4413009A, “N-((Alkylamino)carbonyl)-N-(((alkylamino)carbonyl)oxy)acylamides with antineoplastic activity” (priority 1982, dated 1983).

Columns and labels:
[1] = tested on: MX-1 human breast xenograft; assay: Activity against MX-1 human breast xenograft in subrenal capsule of athymic mice, tumor size change and toxicity day survivors; assay type: in vivo, human (xenograft in athymic Swiss Nu/Nu mice); details: survivors/started
Procedure: (B) A tumor fragment (MX-1 human breast xenograft) having a diameter of between 9 and 12 ocular micrometer units (OMU) (approximately 1×1×1 millimeter) was implanted and measured in situ in the subrenal capsule of athymic Swiss (Nu/Nu Swiss) mice. The appropriate dosage of the test compound in a saline carrier was administered by subcutaneous injection once daily for 10 days; the initial treatment was performed on the first day after tumor implant. No test compound was administered to the control mice. Test mice were sacrificed on the eleventh day and tumor size noted. The change in tumor diameter (from day 0 (implant day) to day 11 (sacrifice day)) as compared with the tumor size of the control was used as an evaluation of tumor growth or regression.

[2] = tested on: P388 leukemia; assay: Antineoplastic activity against P388 lymphocytic leukemia in mice (IP), survival time and toxicity day survivors; assay type: in vivo, mice (CDF1); details: for Toxicity Day Survivors: survivors/started
Procedure: (A) Test mice (CDF1 mice) were injected intraperitoneally (IP) with ascitic fluid containing 10^6 cells of P388 lymphocytic leukemia. The test compound was administered in a sialine -Tween 80 carrier at the appropriate dosage, IP daily for 9 days; the initial treatment performed the first day after tumor inoculation. Control mice received no compound.

[3] = tested on: HeLa cells; assay: HeLa cell colony cytotoxicity / growth inhibition test; assay type: cell-based, human; details: 8 days, 0-50 μg/ml
Procedure: HeLa cells were seeded in 24-well tissue culture plates at a concentration of 30 cells per well in 1 ml of growth medium (Eagle's minimum essential medium with 5 percent HIFCS). The plates were incubated at 36° C. for 24 hours after which the growth medium was removed. The cells were resuspended in 1 ml of fresh growth medium described above together with a measured quantity of (0-50 μg/ml) of one of the compounds of this invention. The 0 μg/ml concentration served as a control. The tissue culture plates were then incubated at 36° C. for 8 days at which time the medium was removed and the cells were fixed and stained with 0.1% crystal violet in 20% ethanol. The HeLa cell colonies were counted macroscopically, and comparisons of colony size in treated and control wells were made. Test compounds were considered cytotoxic at concentrations which reduced the number of HeLa cell colonies compared to control by 50% or more. Test compounds of the invention were considered to cause HeLa cell growth inhibition at concentrations which reduced the size of colonies by a measurable amount when compared to control.

[4] = Experiment No. 1, 50.00 mg/kg per injection IP daily for 9 days
[5] = Experiment No. 2, 12.50 mg/kg per injection IP daily for 9 days
[6] = Experiment No. 2, 25.00 mg/kg per injection IP daily for 9 days
[7] = Experiment No. 2, 50.00 mg/kg per injection IP daily for 9 days

CNC(=O)ON(C(C)=O)C(=O)NC [Example 1, N-((Methylamino)carbonyl)-N-(((methylamino)carbonyl)oxy)acetamide]
Toxicity Day Survivors ([1]; Experiment 1, 12.5 mg/kg s.c. daily for 10 days): 03/03
Toxicity Day Survivors ([1]; Experiment 1, 25 mg/kg s.c. daily for 10 days): 03/03
Toxicity Day Survivors ([1]; Experiment 1, 50 mg/kg s.c. daily for 10 days): 03/03
Toxicity Day Survivors ([1]; Experiment 1, 100 mg/kg s.c. daily for 10 days): 01/03
Toxicity Day Survivors ([1]; Experiment 2, 25 mg/kg s.c. daily for 10 days): 06/06
Toxicity Day Survivors ([1]; Experiment 2, 50 mg/kg s.c. daily for 10 days): 06/06
Toxicity Day Survivors ([1]; Experiment 2, 100 mg/kg s.c. daily for 10 days): 06/06
Toxicity Day Survivors ([1]; Experiment 2, 200 mg/kg s.c. daily for 10 days): 05/06
Toxicity Day Survivors ([1]; Experiment 3, 25 mg/kg s.c. daily for 10 days): 06/06
Toxicity Day Survivors ([1]; Experiment 3, 50 mg/kg s.c. daily for 10 days): 06/06
Toxicity Day Survivors ([1]; Experiment 3, 100 mg/kg s.c. daily for 10 days): 06/06
Toxicity Day Survivors ([1]; Experiment 3, 200 mg/kg s.c. daily for 10 days): 00/06
Toxicity Day Survivors ([1]; Experiment 4, 25 mg/kg s.c. daily for 10 days): 03/03
Toxicity Day Survivors ([1]; Experiment 4, 50 mg/kg s.c. daily for 10 days): 02/02
Toxicity Day Survivors ([1]; Experiment 4, 100 mg/kg s.c. daily for 10 days): 03/03
Toxicity Day Survivors ([1]; Experiment 4, 200 mg/kg s.c. daily for 10 days): 01/03
median survival time of the test animals (in words) ([2]; 50 mg/kg per injection, one experiment): increased the median survival time
median survival time of the test animals (in words) ([2]; 12.50, 25 and 50 mg/kg per injection, another experiment): increased the median survival time
T/C % (median survival time, treated vs control) [2, 4]: 142%
Toxicity Day Survivors [2, 4]: 06/06
Toxicity Day Survivors ([2]; Experiment No. 1, 100.00 mg/kg per injection IP daily for 9 days): 01/06
Toxicity Day Survivors ([2]; Experiment No. 1, 200.00 mg/kg per injection IP daily for 9 days): 00/06
T/C % (median survival time, treated vs control) [2, 5]: 131%
Toxicity Day Survivors [2, 5]: 06/06
T/C % (median survival time, treated vs control) [2, 6]: 126%
Toxicity Day Survivors [2, 6]: 06/06
T/C % (median survival time, treated vs control) [2, 7]: 141%
Toxicity Day Survivors [2, 7]: 06/06
Toxicity Day Survivors ([2]; Experiment No. 2, 100.00 mg/kg per injection IP daily for 9 days): 03/06
median survival time of the test mice afflicted with P388 leukemia (in words) ([2]; Table 3 data): increased the median survival time
Cell Growth Inhibition: concentration at which the size of the HeLa colonies were reduced by a measurable amount (as compared to control) [3]: 12.5 µg/mL
